7 compounds from PubChem BioAssay (NCI) can be followed below.

Some test systems named below: 786-0 renal; HCC-2998 colon; HT29 colon; MDA-MB-435; NCI-H23 lung; OVCAR-4 ovarian; OVCAR-5 ovarian; SK-MEL-5 melanoma; SK-OV-3 ovarian; UO-31 renal.
What all share (assay): inhibition of tumour cell growth, NCI panel, 48 h

Molecules are shown by their SMILES.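 Compound exposure: 48 hours, 5 concentrations, 96-well plates. Abbreviation: GI50, concentration required for 50% inhibition of growth. At the TGI there is no net growth.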

As to `Cc1cc(O)ccc1O`, the GI50 in the assay on 786-0 renal is 21.2 µM; in the assay on HCC-2998 colon, 73.6 µM; in the assay with HT29 colon, 49.8 µM; with MDA-MB-435, 17.8 µM; in the assay on NCI-H23 lung, 39.4 µM; with OVCAR-4 ovarian, 15.6 µM. Besides, the GI50 in the assay on OVCAR-5 ovarian is 16.6 µM; in the assay with SK-MEL-5 melanoma it was 62 µM; with SK-OV-3 ovarian it was 72.9 µM; in the assay on UO-31 renal, 13.4 µM. The TGI in the assay on 786-0 renal is 75.8 µM; with HCC-2998 colon, more than 100 µM; with HT29 colon it was more than 100 µM; in the assay with MDA-MB-435, 36.6 µM; in the assay with NCI-H23 lung, more than 100 µM; in the assay with OVCAR-4 ovarian it was 29 µM. The TGI is 32.1 µM in the assay with OVCAR-5 ovarian, more than 100 µM with SK-MEL-5 melanoma, more than 100 µM in the assay on SK-OV-3 ovarian and 26.2 µM in the assay with UO-31 renal.

For the compound `c1ccc2c(-c3nc4ccccc4[nH]3)cccc2c1`, the GI50 is 5.5 µM with 786-0 renal; 6.96 µM in the assay on HCC-2998 colon; 2.68 µM in the assay on HT29 colon; 0.309 µM in the assay on MDA-MB-435; 4.2 µM in the assay with NCI-H23 lung; 10.9 µM in the assay on OVCAR-4 ovarian. Besides, the GI50 with OVCAR-5 ovarian is 8.35 µM; in the assay on SK-MEL-5 melanoma it was 4.28 µM; in the assay with SK-OV-3 ovarian, 4.04 µM; in the assay with UO-31 renal, 4.72 µM. Also, the TGI in the assay on 786-0 renal is more than 100 µM; in the assay with HCC-2998 colon, more than 100 µM; with HT29 colon, 11.8 µM; in the assay with MDA-MB-435 it was 1.44 µM; in the assay on NCI-H23 lung, more than 100 µM; in the assay with OVCAR-4 ovarian, more than 100 µM. Also, the TGI in the assay on OVCAR-5 ovarian was more than 100 µM; with SK-MEL-5 melanoma, 72.4 µM; in the assay with SK-OV-3 ovarian, 27.3 µM; in the assay on UO-31 renal it was 33.3 µM.

In the case of `O=C1CSC(=S)N1Cc1cccnc1`, the GI50 was 3.67 µM in the assay with 786-0 renal; 19.8 µM in the assay with HCC-2998 colon; 3.9 µM with HT29 colon; 3.53 µM in the assay on MDA-MB-435; 15.1 µM with NCI-H23 lung; 7.78 µM with OVCAR-4 ovarian. Besides, the GI50 in the assay with OVCAR-5 ovarian is 13.2 µM; in the assay with SK-MEL-5 melanoma it was 24.5 µM; in the assay with SK-OV-3 ovarian, 35.8 µM; with UO-31 renal it was 4.61 µM. In addition, the TGI came to 11.2 µM with 786-0 renal; 36.9 µM in the assay with HCC-2998 colon; 11.9 µM in the assay on HT29 colon; 17.1 µM in the assay on MDA-MB-435; 48 µM in the assay on NCI-H23 lung; 25.4 µM in the assay with OVCAR-4 ovarian. In addition, the TGI with OVCAR-5 ovarian is 26.8 µM; with SK-MEL-5 melanoma, 71.6 µM; in the assay with SK-OV-3 ovarian, more than 100 µM; in the assay with UO-31 renal, 17.6 µM.

`CCCCCCCCCCCCSC(=NC)NC`: the GI50 was 1.88 µM in the assay on 786-0 renal; 1.6 µM in the assay on HCC-2998 colon; 2.06 µM in the assay with HT29 colon; 1.74 µM with MDA-MB-435; 2.2 µM in the assay on NCI-H23 lung; 2.16 µM in the assay on OVCAR-4 ovarian. For the same compound, the GI50 with OVCAR-5 ovarian is 1.83 µM; in the assay with SK-MEL-5 melanoma it was 1.48 µM; in the assay with SK-OV-3 ovarian, 4.26 µM; in the assay on UO-31 renal, 2.11 µM. In addition, the TGI with 786-0 renal was 3.51 µM; with HCC-2998 colon, 3.03 µM; in the assay with HT29 colon it was 9.33 µM; in the assay with MDA-MB-435, 3.3 µM; with NCI-H23 lung it was 4.71 µM; with OVCAR-4 ovarian it was 5.61 µM. Moreover, the TGI worked out at 4.16 µM in the assay with OVCAR-5 ovarian, 2.85 µM in the assay on SK-MEL-5 melanoma, 19 µM in the assay on SK-OV-3 ovarian and 5.64 µM in the assay with UO-31 renal.

As for `NC(N)=N/N=C(/c1ccccc1)c1ccc(Cl)cc1`, the GI50 with 786-0 renal was 16 µM; with HCC-2998 colon it was 16.3 µM; with HT29 colon, 2.93 µM; in the assay on MDA-MB-435, 2.74 µM; in the assay on NCI-H23 lung, 34 µM; in the assay on OVCAR-4 ovarian, 19 µM. In addition, the GI50 was 47.3 µM in the assay on OVCAR-5 ovarian, 5.97 µM in the assay on SK-MEL-5 melanoma, 39.7 µM with SK-OV-3 ovarian and 17.2 µM in the assay on UO-31 renal. In addition, the TGI in the assay with 786-0 renal was more than 100 µM; with HCC-2998 colon, 47.5 µM; in the assay on HT29 colon it was 24.9 µM; in the assay with MDA-MB-435, 9.27 µM; in the assay with NCI-H23 lung, more than 100 µM; in the assay with OVCAR-4 ovarian, more than 100 µM. Further, the TGI was more than 100 µM in the assay on OVCAR-5 ovarian, 44.9 µM with SK-MEL-5 melanoma, more than 100 µM with SK-OV-3 ovarian and more than 100 µM with UO-31 renal.

Consider `Cc1[nH]n(-c2ccc(S(=O)(=O)O)cc2)c(=O)c1N=Nc1ccccc1`, for which the TGI with 786-0 renal, in the assay with HCC-2998 colon, with HT29 colon, in the assay on MDA-MB-435, in the assay on NCI-H23 lung and with OVCAR-4 ovarian was more than 100 µM each time. In addition, the TGI in the assay with OVCAR-5 ovarian, with SK-MEL-5 melanoma, in the assay on SK-OV-3 ovarian and in the assay on UO-31 renal was more than 100 µM in each case.

Consider `CC1CC(C)/C(=N/NC(N)=O)C(C(O)CC2CCC(=O)NC2=O)C1` (stereo not given), for which the GI50 in the assay with 786-0 renal was 3.46 µM; in the assay with HCC-2998 colon, 5.07 µM; in the assay on HT29 colon, 3.49 µM; in the assay on MDA-MB-435, 3.3 µM; in the assay with NCI-H23 lung, 3.57 µM; in the assay with OVCAR-4 ovarian, 5.64 µM. Further, the GI50 with OVCAR-5 ovarian was 3.73 µM; in the assay on SK-MEL-5 melanoma it was 2.85 µM; in the assay with SK-OV-3 ovarian, 4.08 µM; in the assay on UO-31 renal, 2.33 µM. The TGI was more than 100 µM with 786-0 renal; more than 100 µM in the assay on HCC-2998 colon; more than 100 µM in the assay with HT29 colon; 97 µM with MDA-MB-435; more than 100 µM with NCI-H23 lung; more than 100 µM with OVCAR-4 ovarian. The TGI was 86.2 µM in the assay with OVCAR-5 ovarian, 34.8 µM in the assay with SK-MEL-5 melanoma, more than 100 µM with SK-OV-3 ovarian and 34.3 µM in the assay on UO-31 renal.
